Test results published in patent US8431563B2 (priority 2010, dated 2013).
Read-outs that look alike come from different tables or passages of the source.

Columns and labels:
[1] = target: T1, interaction between glucokinase (GK) and glucokinase regulatory protein (GKRP) (Homo sapiens, UniProt Q14397); assay: biochemical; type: binding
T1 sequence (Q14397 1-625): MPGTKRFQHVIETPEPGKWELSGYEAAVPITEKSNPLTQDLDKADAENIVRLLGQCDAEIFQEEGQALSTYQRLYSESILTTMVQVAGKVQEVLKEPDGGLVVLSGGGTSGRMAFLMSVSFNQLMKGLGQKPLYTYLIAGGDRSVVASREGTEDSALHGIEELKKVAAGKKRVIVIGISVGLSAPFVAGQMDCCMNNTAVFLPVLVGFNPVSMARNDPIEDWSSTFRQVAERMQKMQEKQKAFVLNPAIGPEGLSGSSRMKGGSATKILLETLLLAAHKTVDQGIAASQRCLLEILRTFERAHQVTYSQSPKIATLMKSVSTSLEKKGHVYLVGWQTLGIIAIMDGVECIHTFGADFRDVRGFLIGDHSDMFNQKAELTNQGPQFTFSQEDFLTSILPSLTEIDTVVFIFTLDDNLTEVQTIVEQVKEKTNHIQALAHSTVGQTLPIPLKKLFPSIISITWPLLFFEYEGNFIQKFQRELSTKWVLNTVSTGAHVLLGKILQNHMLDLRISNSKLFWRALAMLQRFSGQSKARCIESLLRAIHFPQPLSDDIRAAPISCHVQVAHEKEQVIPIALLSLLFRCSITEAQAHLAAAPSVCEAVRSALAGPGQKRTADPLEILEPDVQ
Summary of the method: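 Avi-tagged human GKRP preincubated with compound for 20 min at room temperature, then 6 nM GK-fluorescein (concentration of added solution) introduced and incubated 2 h in the dark. Buffer: 20 mM Tris pH 7.5, 0.05% BSA, 1 mM DTT, 1 μM sorbitol-6-phosphate. Plate read on a fluorescence reader.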

[2] = target: T2, GKRP (Glucokinase Regulatory Protein) with human His-hepatic GK (Homo sapiens, UniProt Q14397); assay: biochemical
T2 sequence (Q14397 1-625): T1 sequence (Q14397 1-625)
Summary of the method: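 Human His-tagged hepatic GK (30 nM in the 5× working stock) in 50 mM Tris pH 7.5, 4 mM MgCl2, 6% DMSO with DTT, BSA and Brij-35. Enzyme was added after a 30 min step and reacted 30 min at room temperature. The reaction was stopped with acetonitrile and 13C-glucose-6-phosphate formed from 13C-glucose was quantified by LC MS/MS.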

[3] = avi-tagged GKRP, GK-fluorescein, AlphaScreen beads, read-out: GK-GKRP IC50 (Binding)
[4] = 13C-glucose-6-phosphate formation, 280 nM GKRP (10×), 30 nM GK (5×), read-out: GK-GKRP EC50 (LC MS/MS-2)

| Structure (SMILES) | IC50 [1, 3] | EC50 [2, 4] | also measured |
| --- | --- | --- | --- |
| C[C@H]1COCCN1C[C@H]1CN(S(=O)(=O)c2cccs2)CCN1c1ncc(C(O)(C(F)(F)F)C(F)(F)F)cn1 [Example 82, 1,1,1,3,3,3-hexafluoro-2-(2-((2S)-2-(((3S)-3-methyl-4-morpholinyl)methyl)-4-(2-thiophenylsulfonyl)-1-piperazinyl)-5-pyrimidinyl)-2-propanol] | 15 nM | 26 nM | – |
| Nc1ccc(S(=O)(=O)N2CCN(c3ccc(C(O)(C(F)(F)F)C(F)(F)F)cc3)CC2)s1 [Example 88, 2-(4-(4-((5-amino-2-thiophenyl)sulfonyl)-1-piperazinyl)phenyl)-1,1,1,3,3,3-hexafluoro-2-propanol] | 302 nM | 150 nM | – |
| C[C@H]1CN(S(=O)(=O)c2ccc(N)s2)CCN1c1ncc(C(O)(C(F)(F)F)C(F)(F)F)cn1 [Example 89, 2-(2-((2S)-4-((5-amino-2-thiophenyl)sulfonyl)-2-methyl-1-piperazinyl)-5-pyrimidinyl)-1,1,1,3,3,3-hexafluoro-2-propanol] | 252 nM | 161 nM | – |
| C[C@H]1CN(S(=O)(=O)c2ccc(N)nc2)CCN1c1ccc(C(O)(C(F)(F)F)C(F)(F)F)cc1 [Example 92, 2-(4-((2S)-4-((6-amino-3-pyridinyl)sulfonyl)-2-methyl-1-piperazinyl)phenyl)-1,1,1,3,3,3-hexafluoro-2-propanol] | 205 nM | 233 nM | – |
| C[C@H]1CN(S(=O)(=O)c2ccc(N)nc2)CCN1c1ncc(C(O)(C(F)(F)F)C(F)(F)F)cn1 [Example 93, 2-(2-((2S)-4-((6-amino-3-pyridinyl)sulfonyl)-2-methyl-1-piperazinyl)-5-pyrimidinyl)-1,1,1,3,3,3-hexafluoro-2-propanol] | 190 nM | 196 nM | – |
| C[C@H]1CN(S(=O)(=O)c2cccs2)CCN1c1ncc(C(O)(C(F)(F)F)C(F)(F)F)cn1 [Example 94, 1,1,1,3,3,3-hexafluoro-2-(2-((2S)-2-methyl-4-(2-thiophenylsulfonyl)-1-piperazinyl)-5-pyrimidinyl)-2-propanol] | 362 nM | 470 nM | – |
| Nc1ccc(S(=O)(=O)N2CCN(c3ncc(C(O)(C(F)(F)F)C(F)(F)F)cn3)[C@@H](CN3C4COCC3CC(O)C4)C2)s1 (stereo partly drawn) [Example 98 nonan-7-ol (endo), 9-(((2S)-4-((5-amino-2-thiophenyl)sulfonyl)-1-(5-(2,2,2-trifluoro-1-hydroxy-1-(trifluoromethyl)ethyl)-2-pyrimidinyl)-2-piperazinyl)methyl)-3-oxa-9-azabicyclo[3.3.1]nonan-7-ol (endo)] | 2 nM | 19 nM | – |
| Nc1ccc(S(=O)(=O)N2CCN(c3ncc(C(O)(C(F)(F)F)C(F)(F)F)cn3)[C@@H](CN3C4COCC3CC(=O)C4)C2)s1 [Example 98 nonan-7-one, 9-(((2S)-4-((5-amino-2-thiophenyl)sulfonyl)-1-(5-(2,2,2-trifluoro-1-hydroxy-1-(trifluoromethyl)ethyl)-2-pyrimidinyl)-2-piperazinyl)methyl)-3-oxa-9-azabicyclo[3.3.1]nonan-7-one] | – | – | IC50 ([1]; GK-GKRP IC50 (Binding), avi-tagged GKRP, GK-fluorescein, AlphaScreen beads): 16 nM; EC50 ([2]; GK-GKRP EC50 (LC MS/MS-2), 13C-glucose-6-phosphate formation, 280 nM GKRP (10×), 30 nM GK (5×)): 40 nM |
| Nc1ccc(S(=O)(=O)N2CCN(c3ncc(C(O)(C(F)(F)F)C(F)(F)F)cn3)[C@@H](CN3C4COCC3CC(O)C4)C2)cn1 (stereo partly drawn) [Example 99 nonan-7-ol (endo), 9-(((2S)-4-((6-amino-3-pyridinyl)sulfonyl)-1-(5-(2,2,2-trifluoro-1-hydroxy-1-(trifluoromethyl)ethyl)-2-pyrimidinyl)-2-piperazinyl)methyl)-3-oxa-9-azabicyclo[3.3.1]nonan-7-ol (endo)] | 3 nM | 25 nM | – |
| Nc1ccc(S(=O)(=O)N2CCN(c3ncc(C(O)(C(F)(F)F)C(F)(F)F)cn3)[C@@H](CN3C4COCC3CC(=O)C4)C2)cn1 [Example 99 nonan-7-one, 9-(((2S)-4-((6-amino-3-pyridinyl)sulfonyl)-1-(5-(2,2,2-trifluoro-1-hydroxy-1-(trifluoromethyl)ethyl)-2-pyrimidinyl)-2-piperazinyl)methyl)-3-oxa-9-azabicyclo[3.3.1]nonan-7-one] | 75 nM | 97 nM | – |
| CC(O)(c1ccc(N2CCN(S(=O)(=O)c3cccs3)C[C@@H]2CN2[C@@H]3COC[C@H]2CC(=O)C3)cc1)C(F)(F)F (stereo partly drawn) [Example 106, 9-(((2S)-4-(2-thiophenylsulfonyl)-1-(4-(2,2,2-trifluoro-1-hydroxy-1-methylethyl)phenyl)-2-piperazinyl)methyl)-3-oxa-9-azabicyclo[3.3.1]nonan-7-one] | 35 nM | 97 nM | – |
| CC(O)(c1ccc(N2CCN(S(=O)(=O)c3cccs3)C[C@@H]2CN2[C@@H]3COC[C@H]2CC(O)C3)cc1)C(F)(F)F (stereo partly drawn) [Example 107, 9-(((2S)-4-(2-thiophenylsulfonyl)-1-(4-(2,2,2-trifluoro-1-hydroxy-1-methylethyl)phenyl)-2-piperazinyl)methyl)-3-oxa-9-azabicyclo[3.3.1]nonan-7-ol (endo)] | 5 nM | 16 nM | – |
| CC1(O)C[C@H]2COC[C@@H](C1)N2C[C@H]1CN(S(=O)(=O)c2cccs2)CCN1c1ccc(C(C)(O)C(F)(F)F)cc1 (stereo partly drawn) [Example 108, (1R,5S)-7-methyl-9-(((2S)-4-(2-thiophenylsulfonyl)-1-(4-(2,2,2-trifluoro-1-hydroxy-1-methylethyl)phenyl)-2-piperazinyl)methyl)-3-oxa-9-azabicyclo[3.3.1]nonan-7-ol (endo)] | 27 nM | 45 nM | – |
| COC1C[C@H]2COC[C@@H](C1)N2C[C@H]1CN(S(=O)(=O)c2cccs2)CCN1c1ccc(C(C)(O)C(F)(F)F)cc1 (stereo partly drawn) [Example 109, 1,1,1-trifluoro-2-(4-((2S)-2-(((1R,5S)-7-methoxy-3-oxa-9-azabicyclo[3.3.1]non-9-yl)methyl)-4-(2-thiophenylsulfonyl)-1-piperazinyl)phenyl)-2-propanol (endo)] | 72 nM | 81 nM | – |
| CC(O)(c1ccc(N2CCN(S(=O)(=O)c3cccs3)C[C@@H]2CN2CC3CCOC3C2)cc1)C(F)(F)F (stereo partly drawn) [Example 122, 1,1,1-trifluoro-2-(4-((2S)-2-(cis-hexahydro-5H-furo[2,3-c]pyrrol-5-ylmethyl)-4-(2-thiophenylsulfonyl)-1-piperazinyl)phenyl)-2-propanol] | – | – | IC50 ([1]; GK-GKRP IC50 (Binding)): 555 nM; EC50 ([2]; GK-GKRP EC50 (LC MS/MS-2)): 313 nM |
| CC(O)(c1ccc(N2CCN(S(=O)(=O)c3cccs3)C[C@@H]2CN2C[C@H]3COC[C@H]3C2)cc1)C(F)(F)F (stereo partly drawn) [Example 123, 1,1,1-trifluoro-2-(4-((2S)-2-((3aR,6aS)-tetrahydro-1H-furo[3,4-c]pyrrol-5(3H)-ylmethyl)-4-(2-thiophenylsulfonyl)-1-piperazinyl)phenyl)-2-propanol] | – | – | IC50 ([1]; GK-GKRP IC50 (Binding)): 671 nM; EC50 ([2]; GK-GKRP EC50 (LC MS/MS-2)): 731 nM |
| Nc1ccc(S(=O)(=O)N2CCN(c3ccc(C(O)(C(F)(F)F)C(F)(F)F)cc3)[C@@H](CC3CCOCC3)C2)cn1 [Example 126, 2-(4-((2S)-4-((6-amino-3-pyridinyl)sulfonyl)-2-(tetrahydro-2H-pyran-4-ylmethyl)-1-piperazinyl)phenyl)-1,1,1,3,3,3-hexafluoro-2-propanol] | 22 nM | 37 nM | – |
| C[C@H]1COCCN1C[C@H]1CN(S(=O)(=O)c2ccc(N)nc2)CCN1c1ncc(C(O)(C(F)(F)F)C(F)(F)F)cn1 [Example 128, 2-(2-((2S)-4-((6-amino-3-pyridinyl)sulfonyl)-2-(((3S)-3-methyl-4-morpholinyl)methyl)-1-piperazinyl)-5-pyrimidinyl)-1,1,1,3,3,3-hexafluoro-2-propanol] | 27 nM | 34 nM | – |
